Laboratory results reported in PubChem BioAssay (NCI).
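GI50 marks 50% less growth. TGI is the concentration that stops growth completely.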

How the values were obtained:
Assay in all cases: DTP human tumour cell line panel, 384-well format
HCC-2998 colon = test system: HCC-2998 colon
SF-539 CNS = test system: SF-539 CNS
OVCAR-4 ovarian = test system: OVCAR-4 ovarian
A549 NSCLC = test system: A549 NSCLC
HOP-62 NSCLC = test system: HOP-62 NSCLC
NCI-H23 lung = test system: NCI-H23 lung
UACC-257 melanoma = test system: UACC-257 melanoma
SK-MEL-5 melanoma = test system: SK-MEL-5 melanoma
U251 glioblastoma = test system: U251 glioblastoma
SF-268 CNS = test system: SF-268 CNS
RPMI-8226 leukemia = test system: RPMI-8226 leukemia
HCT-15 colon = test system: HCT-15 colon
OVCAR-5 ovarian = test system: OVCAR-5 ovarian
SNB-19 CNS = test system: SNB-19 CNS
IGROV1 ovarian = test system: IGROV1 ovarian
HT29 colon = test system: HT29 colon
786-0 renal = test system: 786-0 renal
NCI-H226 lung = test system: NCI-H226 lung
PC-3 prostate = test system: PC-3 prostate
SK-MEL-2 melanoma = test system: SK-MEL-2 melanoma
MCF7 breast = test system: MCF7 breast
OVCAR-8 ovarian = test system: OVCAR-8 ovarian
MDA-MB-435 melanoma = test system: MDA-MB-435 melanoma
CCRF-CEM leukemia = test system: CCRF-CEM leukemia
LOX IMVI melanoma = test system: LOX IMVI melanoma
SK-MEL-28 melanoma = test system: SK-MEL-28 melanoma
A498 renal = test system: A498 renal
T-47D breast = test system: T-47D breast
SR leukemia = test system: SR leukemia
CAKI-1 renal = test system: CAKI-1 renal
HCT-116 colon = test system: HCT-116 colon
UO-31 renal = test system: UO-31 renal
NCI-H460 NSCLC = test system: NCI-H460 NSCLC
TK-10 renal = test system: TK-10 renal
EKVX NSCLC = test system: EKVX NSCLC
SN12C renal = test system: SN12C renal
HS 578T breast = test system: HS 578T breast
ACHN renal = test system: ACHN renal
SNB-75 CNS = test system: SNB-75 CNS
M14 melanoma = test system: M14 melanoma
MDA-MB-231 breast = test system: MDA-MB-231 breast
SK-OV-3 ovarian = test system: SK-OV-3 ovarian
RXF 393 renal = test system: RXF 393 renal
NCI-H522 lung = test system: NCI-H522 lung
DU-145 prostate = test system: DU-145 prostate
OVCAR-3 ovarian = test system: OVCAR-3 ovarian
KM12 colon = test system: KM12 colon
COLO 205 colon = test system: COLO 205 colon
BT-549 breast = test system: BT-549 breast
MDA-MB-468 breast = test system: MDA-MB-468 breast
NCI/ADR-RES ovarian = test system: NCI/ADR-RES ovarian
SW-620 colon = test system: SW-620 colon
NCI-H322M lung = test system: NCI-H322M lung
HL-60(TB) leukemia = test system: HL-60(TB) leukemia
UACC-62 melanoma = test system: UACC-62 melanoma
MALME-3M melanoma = test system: MALME-3M melanoma
HOP-92 NSCLC = test system: HOP-92 NSCLC
K-562 leukemia = test system: K-562 leukemia
SF-295 CNS = test system: SF-295 CNS
MOLT-4 leukemia = test system: MOLT-4 leukemia

## N#Cc1ccnc(N2C(=O)CC[C@H]2C(=O)N(c2cncc(F)c2)[C@H](C(=O)NC2CC(F)(F)C2)c2ccccc2Cl)c1
HCC-2998 colon
  GI50: > 100 µM
  TGI: > 100 µM
SF-539 CNS
  GI50: > 100 µM
  TGI: > 100 µM
OVCAR-4 ovarian
  GI50: > 86.7 µM
  TGI: > 100 µM
A549 NSCLC
  GI50: > 90.8 µM
  TGI: > 100 µM
HOP-62 NSCLC
  GI50: > 100 µM
  TGI: > 100 µM
NCI-H23 lung
  GI50: > 89.5 µM
  TGI: > 100 µM
UACC-257 melanoma
  GI50: > 100 µM
  TGI: > 100 µM
SK-MEL-5 melanoma
  GI50: > 100 µM
  TGI: > 100 µM
U251 glioblastoma
  GI50: > 100 µM
  TGI: > 100 µM
SF-268 CNS
  GI50: > 100 µM
  TGI: > 100 µM
RPMI-8226 leukemia
  GI50: > 100 µM
  TGI: > 100 µM
HCT-15 colon
  GI50: > 100 µM
  TGI: > 100 µM
OVCAR-5 ovarian
  GI50: > 100 µM
  TGI: > 100 µM
SNB-19 CNS
  GI50: > 100 µM
  TGI: > 100 µM
IGROV1 ovarian
  GI50: > 100 µM
  TGI: > 100 µM
HT29 colon
  GI50: > 95.3 µM
  TGI: > 100 µM
786-0 renal
  GI50: > 100 µM
  TGI: > 100 µM
NCI-H226 lung
  GI50: > 84.9 µM
  TGI: > 100 µM
PC-3 prostate
  GI50: > 100 µM
  TGI: > 100 µM
SK-MEL-2 melanoma
  GI50: > 100 µM
  TGI: > 100 µM
MCF7 breast
  GI50: > 100 µM
  TGI: > 100 µM
OVCAR-8 ovarian
  GI50: > 100 µM
  TGI: > 100 µM
MDA-MB-435 melanoma
  GI50: > 100 µM
  TGI: > 100 µM
CCRF-CEM leukemia
  GI50: > 72.8 µM
  TGI: > 100 µM
LOX IMVI melanoma
  GI50: > 100 µM
  TGI: > 100 µM
SK-MEL-28 melanoma
  GI50: > 100 µM
  TGI: > 100 µM
A498 renal
  GI50: > 100 µM
  TGI: > 100 µM
T-47D breast
  GI50: > 100 µM
  TGI: > 100 µM
SR leukemia
  GI50: 31.4 µM
  TGI: > 95.8 µM
CAKI-1 renal
  GI50: > 55.4 µM
  TGI: > 82.9 µM
HCT-116 colon
  GI50: 28.6 µM
  TGI: > 100 µM
UO-31 renal
  GI50: > 100 µM
  TGI: > 100 µM
NCI-H460 NSCLC
  GI50: 89.7 µM
  TGI: > 100 µM
TK-10 renal
  GI50: > 100 µM
  TGI: > 100 µM
EKVX NSCLC
  GI50: > 100 µM
  TGI: > 100 µM
SN12C renal
  GI50: > 100 µM
  TGI: > 100 µM
HS 578T breast
  GI50: > 87.8 µM
  TGI: > 100 µM
ACHN renal
  GI50: > 100 µM
  TGI: > 100 µM
SNB-75 CNS
  GI50: > 100 µM
  TGI: > 100 µM
M14 melanoma
  GI50: > 100 µM
  TGI: > 100 µM
MDA-MB-231 breast
  GI50: > 100 µM
  TGI: > 100 µM
SK-OV-3 ovarian
  GI50: > 100 µM
  TGI: > 100 µM
RXF 393 renal
  GI50: > 77.2 µM
  TGI: > 100 µM
NCI-H522 lung
  GI50: 97.9 µM
  TGI: > 100 µM
DU-145 prostate
  GI50: > 100 µM
  TGI: > 100 µM
OVCAR-3 ovarian
  GI50: > 96.1 µM
  TGI: > 100 µM
KM12 colon
  GI50: > 100 µM
  TGI: > 100 µM
COLO 205 colon
  GI50: > 100 µM
  TGI: > 100 µM
BT-549 breast
  GI50: > 100 µM
  TGI: > 100 µM
MDA-MB-468 breast
  GI50: > 100 µM
  TGI: > 100 µM
NCI/ADR-RES ovarian
  GI50: > 100 µM
  TGI: > 100 µM
SW-620 colon
  GI50: > 100 µM
  TGI: > 100 µM
NCI-H322M lung
  GI50: > 100 µM
  TGI: > 100 µM
HL-60(TB) leukemia
  GI50: > 100 µM
  TGI: > 100 µM
UACC-62 melanoma
  GI50: > 100 µM
  TGI: > 100 µM
MALME-3M melanoma
  GI50: > 100 µM
  TGI: > 100 µM
HOP-92 NSCLC
  GI50: 34.3 µM
  TGI: > 100 µM
K-562 leukemia
  GI50: 99.2 µM
  TGI: > 100 µM
SF-295 CNS
  GI50: > 100 µM
  TGI: > 100 µM
MOLT-4 leukemia
  GI50: 30.3 µM
  TGI: > 100 µM
